In ChEMBL document CHEMBL1201862, “PubChem BioAssay data set” (2004):
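Exposure lasted 48 hours, with cells grown in 96-well plates and compounds tested at five concentrations. GI50 marks 50% less growth.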 Activity calls are given as the source filed them. Cut-off read from the data, not from the text of the source: active = GI50 up to about 1.1 µM and inactive = higher.

How the values were obtained:
Assay in all cases: inhibition of tumour cell growth, NCI panel, 48 h
[1] = tested on: SW-620
[2] = tested on: OVCAR-5
[3] = tested on: OVCAR-3
[4] = tested on: M14
[5] = tested on: U-251
[6] = tested on: SK-MEL-2
[7] = tested on: HOP-92
[8] = tested on: NCI-H23
[9] = tested on: NCI-H522
[10] = tested on: SNB-19
[11] = tested on: SF-539
[12] = tested on: NCI-H226
[13] = tested on: OVCAR-4
[14] = tested on: HCT-116
[15] = tested on: UACC-62

Measured: GI50

CC1CCC2(OCCO2)[C@]2(C)CC(O)C(=O)C=C12 (stereo partly drawn)
inactive: [1] > 100 µM | [2] > 100 µM | [3] > 100 µM | [4] > 100 µM | [5] > 100 µM | [6] > 100 µM | [7] > 100 µM | [8] > 100 µM | [9] > 100 µM | [10] > 100 µM | [11] > 100 µM | [12] > 100 µM

CC(=O)OC12CCCCC1C1(CCCC1)NC2=O (stereo not drawn)
inactive: [1] > 100 µM | [2] > 100 µM | [3] > 100 µM | [4] > 100 µM | [5] > 100 µM | [13] > 100 µM | [14] > 100 µM | [8] > 100 µM | [10] > 100 µM | [11] > 100 µM | [12] > 100 µM | [15] > 100 µM

O=C1[C@H]2ON(c3ccccc3)C(c3ccccc3)[C@H]2C(=O)N1c1ccc(Cc2ccc(N3C(=O)[C@@H]4ON(c5ccccc5)C(c5ccccc5)[C@@H]4C3=O)cc2)cc1 (stereo partly drawn)
inactive: [1] > 100 µM | [2] > 100 µM | [3] > 100 µM | [4] > 100 µM | [5] > 100 µM | [6] > 100 µM | [7] > 100 µM | [13] > 100 µM | [8] > 100 µM | [11] > 100 µM | [12] > 100 µM | [15] > 100 µM

O=C(/C(=C/c1ccccc1)c1ccccc1)N1c2ccccc2CC1c1c[nH]c2ccccc12 (stereo not drawn)
inactive: [1] 59.2 µM | [2] 38.6 µM | [3] 3.05 µM | [4] 9.18 µM | [5] 9.53 µM | [6] 6.03 µM | [7] 81.1 µM | [13] 37.8 µM | [14] 5.51 µM | [8] 15 µM | [9] 7.8 µM | [10] 23.7 µM | [11] > 100 µM | [12] 41.1 µM | [15] > 100 µM

Cc1ccc(NC(=O)C(=O)C2NC(=S)NC2=O)c([N+](=O)[O-])c1 (stereo not drawn)
inactive: [1] > 100 µM | [2] > 100 µM | [3] > 100 µM | [4] > 100 µM | [5] > 100 µM | [6] > 100 µM | [7] 45.5 µM | [13] > 100 µM | [14] > 100 µM | [8] > 100 µM | [9] > 100 µM | [10] > 100 µM | [11] > 100 µM | [12] > 100 µM | [15] > 100 µM

Cc1ccc(S(=O)(=O)N/N=C\c2c3ccccc3[n+](C)c3ccccc23)cc1
inactive: [1] 33.8 µM | [2] > 100 µM | [3] 26.1 µM | [4] 26 µM | [5] 24 µM | [6] 43.8 µM | [7] 17.1 µM | [13] 27.6 µM | [14] 30.5 µM | [8] 21.1 µM | [9] 25.8 µM | [10] 24.9 µM | [11] 22.4 µM | [12] 25 µM | [15] 19.8 µM

CC(=O)C1C(=O)C(=O)N(CCN2C(=O)C(=O)C(C(C)=O)C2=O)C1=O (stereo not drawn)
inactive: [1] > 100 µM | [2] > 100 µM | [3] > 100 µM | [4] > 100 µM | [5] > 100 µM | [6] > 100 µM | [7] > 100 µM | [13] > 100 µM | [14] > 100 µM | [8] > 100 µM | [9] > 100 µM | [10] > 100 µM | [11] > 100 µM | [12] > 100 µM | [15] > 100 µM

COc1ccc(CC2NCCc3c2[nH]c2ccccc32)cc1 (stereo not drawn)
inactive: [1] 51.9 µM | [2] > 100 µM | [3] 64.6 µM | [4] 41.6 µM | [5] 82 µM | [6] > 100 µM | [7] 16 µM | [13] 54 µM | [14] 40 µM | [10] > 100 µM | [11] 42.1 µM | [12] > 100 µM | [15] > 100 µM

Cc1ccc(Nc2nc3c(s2)C(=O)c2ccccc2C3=O)cc1
inactive: [1] 1.69 µM | [2] 1.91 µM | [3] 1.52 µM | [4] 1.78 µM | [5] 1.89 µM | [6] 1.89 µM | [7] 2.86 µM | [13] 1.55 µM | [8] 1.82 µM | [9] 1.8 µM | [10] 1.79 µM | [11] 5.35 µM | [12] 19.4 µM | [15] 1.87 µM

CC1(C)OCN(c2ccc(N3CCOCC3)cc2)Cn2c1nc1ccccc12
inactive: [1] 34.1 µM | [3] > 100 µM | [4] > 100 µM | [5] > 100 µM | [6] > 100 µM | [7] > 100 µM | [13] 29.6 µM | [14] 65.9 µM | [8] > 100 µM | [9] > 100 µM | [10] > 100 µM | [11] 88.1 µM | [12] 55.3 µM | [15] > 100 µM

FC(F)(F)c1nc2ccc3[nH]c4c(-c5ccccc5)nccc4c3c2[nH]1
inactive: [1] > 100 µM | [2] > 100 µM | [3] > 100 µM | [4] > 100 µM | [5] > 100 µM | [6] > 100 µM | [7] > 100 µM | [13] > 100 µM | [14] > 74.5 µM | [8] > 100 µM | [9] > 83.8 µM | [10] > 100 µM | [11] > 100 µM | [12] > 100 µM | [15] > 100 µM

c1cnc2nc3n(c2c1)CSC3
inactive: [1] > 100 µM | [2] > 100 µM | [3] > 100 µM | [4] > 100 µM | [5] > 100 µM | [6] > 100 µM | [7] > 100 µM | [13] > 100 µM | [8] > 100 µM | [9] > 100 µM | [11] > 100 µM | [12] > 100 µM | [15] > 100 µM

O=C(O/N=C1/CCCC/C1=C\c1ccccc1)c1ccc(Cl)cc1
inactive: [1] > 100 µM | [2] 44.8 µM | [3] > 100 µM | [4] > 100 µM | [5] 89.3 µM | [6] > 100 µM | [7] 40.9 µM | [13] 53 µM | [14] > 100 µM | [8] > 100 µM | [9] 23.3 µM | [10] > 100 µM | [11] > 100 µM | [12] > 100 µM | [15] > 100 µM

CC(C)[C@@H]1C=C(c2ccccc2)c2ccccc2C1C(C#N)(C#N)C(C)C (stereo partly drawn)
inactive: [1] > 100 µM | [2] > 100 µM | [3] 78.9 µM | [4] > 100 µM | [5] > 100 µM | [6] > 100 µM | [7] > 100 µM | [13] 82.4 µM | [14] 32.9 µM | [8] 76 µM | [10] > 100 µM | [11] > 100 µM | [12] > 100 µM | [15] > 100 µM

COc1cccc(N2C(=O)[C@H]3[C@H]4CC(C(C)(C)C)CC[C@H]4c4c([nH]c5ccccc45)[C@H]3C2=O)c1 (stereo partly drawn)
inactive: [1] 17.4 µM | [3] 15.7 µM | [4] 15.1 µM | [6] 20.3 µM | [8] 19.2 µM | [9] 19.4 µM | [10] 18.9 µM | [11] 23 µM | [12] 22.1 µM | [15] 14.6 µM

C/C(CN1C(=O)c2ccccc2C1=O)=N\NS(=O)(=O)c1ccc(Cl)cc1
inactive: [1] > 100 µM | [2] > 100 µM | [3] > 100 µM | [4] > 100 µM | [5] > 100 µM | [6] > 100 µM | [13] > 100 µM | [14] > 100 µM | [8] > 100 µM | [9] > 100 µM | [10] > 100 µM | [11] > 100 µM | [12] > 100 µM | [15] > 100 µM

COc1c(C2=NC(C(C)C)CO2)ccc2ccccc12 (stereo not drawn)
inactive: [1] 45 µM | [2] 82.8 µM | [3] 37.2 µM | [4] 63.5 µM | [6] 65.5 µM | [7] 30.1 µM | [13] 31.7 µM | [8] 34.6 µM | [9] 28.2 µM | [10] 50.5 µM | [11] 34.8 µM | [12] 30.6 µM | [15] 49 µM

Cc1nc2ccccc2c(=O)n1/N=C(\N=N\c1cc(Cl)ccc1Cl)c1cccc(-c2ccco2)c1
inactive: [1] > 100 µM | [2] > 100 µM | [3] > 100 µM | [4] > 100 µM | [5] > 100 µM | [6] 84.5 µM | [7] 27.6 µM | [13] > 100 µM | [14] 53.3 µM | [8] > 100 µM | [10] > 100 µM | [11] > 100 µM | [12] > 100 µM | [15] 48.1 µM

CCc1c(OC(C)=O)c2c(NC3OC(COC(C)=O)C(OC(C)=O)C(OC(C)=O)C3OC(C)=O)nc(OC)nc2oc1=O (stereo not drawn)
inactive: [1] > 100 µM | [2] > 100 µM | [3] > 100 µM | [4] > 100 µM | [5] > 100 µM | [6] > 100 µM | [13] > 100 µM | [14] > 100 µM | [8] > 100 µM | [10] > 100 µM | [11] > 100 µM | [12] > 100 µM | [15] > 100 µM
